The source made the active and inactive calls. The rule behind the calls is not given here.
Tests used:
[1] = biological target: T1, Tyrosinase (Agaricus bisporus, UniProt O42713)
T1 sequence (O42713 whole entry): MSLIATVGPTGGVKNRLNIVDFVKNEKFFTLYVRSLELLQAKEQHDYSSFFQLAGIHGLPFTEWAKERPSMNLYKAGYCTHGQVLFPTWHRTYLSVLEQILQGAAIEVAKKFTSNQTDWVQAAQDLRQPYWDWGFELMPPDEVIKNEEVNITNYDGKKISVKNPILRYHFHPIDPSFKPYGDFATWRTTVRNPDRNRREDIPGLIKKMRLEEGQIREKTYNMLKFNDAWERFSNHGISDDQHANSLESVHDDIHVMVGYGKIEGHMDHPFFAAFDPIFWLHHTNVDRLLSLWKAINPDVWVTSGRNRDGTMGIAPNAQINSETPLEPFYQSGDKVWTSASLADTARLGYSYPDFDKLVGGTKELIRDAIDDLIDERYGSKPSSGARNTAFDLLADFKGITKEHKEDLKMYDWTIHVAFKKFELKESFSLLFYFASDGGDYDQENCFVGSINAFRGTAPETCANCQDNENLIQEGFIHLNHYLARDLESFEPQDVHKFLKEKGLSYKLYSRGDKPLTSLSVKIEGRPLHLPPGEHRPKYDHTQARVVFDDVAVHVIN
Description: Inhibition of mushroom tyrosinase

[2] = biological target: T2, Tyrosinase (Homo sapiens, UniProt P14679)
T2 sequence (P14679 whole entry): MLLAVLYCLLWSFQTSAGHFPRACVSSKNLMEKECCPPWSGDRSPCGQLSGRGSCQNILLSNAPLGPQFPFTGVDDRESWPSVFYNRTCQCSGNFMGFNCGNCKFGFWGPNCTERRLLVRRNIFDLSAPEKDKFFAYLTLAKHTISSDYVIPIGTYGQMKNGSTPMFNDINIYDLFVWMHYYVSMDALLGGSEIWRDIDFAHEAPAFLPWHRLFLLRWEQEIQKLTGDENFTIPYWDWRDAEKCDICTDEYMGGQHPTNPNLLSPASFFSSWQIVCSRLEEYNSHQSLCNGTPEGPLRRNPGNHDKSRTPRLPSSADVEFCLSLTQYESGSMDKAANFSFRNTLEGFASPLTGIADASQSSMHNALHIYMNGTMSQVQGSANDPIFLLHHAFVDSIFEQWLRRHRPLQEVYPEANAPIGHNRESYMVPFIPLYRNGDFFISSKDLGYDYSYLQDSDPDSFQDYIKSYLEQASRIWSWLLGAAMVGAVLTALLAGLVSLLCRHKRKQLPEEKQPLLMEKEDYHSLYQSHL
Description: (§1) Competitive inhibition of tyrosinase in human G-361 cells incubated for 10 mins measured for 2 hrs by MBTH-based spectrophotometry

[3] = biological target: T3, Tyrosinase (Homo sapiens) (UniProt P14679); test: Inhibition of tyrosinase in human G-361 cells at >200 uM incubated for 10 mins measured for 2 hrs by MBTH-based spectrophotometry; assay type: cell-based
T3 sequence (whole entry): T2 sequence (P14679 whole entry)

[4] = biological target: T3, Tyrosinase (Homo sapiens); test: Ratio of kojic acid IC50 to compound IC50 for human tyrosinase
[5] = biological target: T1, Tyrosinase; remark: listed apart in the source
Description: Non-competitive inhibition of mushroom tyrosinase

[6] = biological target: T3, Tyrosinase (Homo sapiens); settings: G-361
Description: as §1

[7] = biological target: T2, Tyrosinase; test: Inhibition of tyrosinase in human HMV-2 melanoma cells after 5 mins by spectrophotometry; assay type: cell-based

O=c1cc(-c2ccc(O)c(O)c2)oc2c(O)c(O)ccc12
IC50 [1]: 0.07 µM

O=Cc1ccc(O)c(O)c1 [PROTOCATECHUALDEHYDE]
IC50 [1]: 2.9 µM

CC(C)c1ccccc(=O)c1O [ALPHA-THUJAPLICIN]
IC50 [2]: > 1000 µM | inhibition [3]: Active | Ratio IC50 [4]: < 0.57

CCCCCCCC/C=C\CCCCCCCC(=O)OCC(COC(=O)CCCCCCC/C=C\CCCCCCCC)OC(=O)CCCCCCC/C=C\CCCCCCCC [TRIOLEIN]
IC50 [5]: 30 µM

CCCCC/C=C\C/C=C\CCCCCCCC(=O)OCC(COC(=O)CCCCCCC/C=C\C/C=C\CCCCC)OC(=O)CCCCCCC/C=C\C/C=C\CCCCC
IC50 [5]: 8.4 µM

CC(C)c1ccc(O)c(=O)cc1 [GAMMA-THUJAPLICIN]
IC50 [2]: 1.15 µM | inhibition [6]: Dose-dependent effect | Ratio IC50 [4]: 497

CC(C)c1cccc(=O)c(O)c1 [HINOKITIOL]
IC50 [2]: 8.98 µM | inhibition [6]: Dose-dependent effect | Ratio IC50 [4]: 63.6

O=C(NCCc1c[nH]c2cc(O)ccc12)c1cc(O)cc(O)c1
IC50 [7]: 9.1 µM | Ratio IC50 [4]: 34.1
